From patent US10221202B2, “Annelated phenoxyacetamides” (Boehringer Ingelheim International GmbH, priority 2015, dated 2019)

Assays:
[1] = molecular target: T1, ENaC (Epithelial Sodium Channel) (Mus musculus, UniProt Q61180+Q9WU38+Q9WU39); assay: Ussing Chamber assay (short circuit current, amiloride sensitive I_SC); type: cell-based; details: Mouse kidney M-1 cells, apical application, 37° C.
T1 construct: Mouse kidney M-1 cells were cultivated in DMEM; endogenous in cells; host or cells: mouse kidney M-1 cells (cortical collecting duct line), no transfection mentioned
T1 sequence (Q61180 1-699): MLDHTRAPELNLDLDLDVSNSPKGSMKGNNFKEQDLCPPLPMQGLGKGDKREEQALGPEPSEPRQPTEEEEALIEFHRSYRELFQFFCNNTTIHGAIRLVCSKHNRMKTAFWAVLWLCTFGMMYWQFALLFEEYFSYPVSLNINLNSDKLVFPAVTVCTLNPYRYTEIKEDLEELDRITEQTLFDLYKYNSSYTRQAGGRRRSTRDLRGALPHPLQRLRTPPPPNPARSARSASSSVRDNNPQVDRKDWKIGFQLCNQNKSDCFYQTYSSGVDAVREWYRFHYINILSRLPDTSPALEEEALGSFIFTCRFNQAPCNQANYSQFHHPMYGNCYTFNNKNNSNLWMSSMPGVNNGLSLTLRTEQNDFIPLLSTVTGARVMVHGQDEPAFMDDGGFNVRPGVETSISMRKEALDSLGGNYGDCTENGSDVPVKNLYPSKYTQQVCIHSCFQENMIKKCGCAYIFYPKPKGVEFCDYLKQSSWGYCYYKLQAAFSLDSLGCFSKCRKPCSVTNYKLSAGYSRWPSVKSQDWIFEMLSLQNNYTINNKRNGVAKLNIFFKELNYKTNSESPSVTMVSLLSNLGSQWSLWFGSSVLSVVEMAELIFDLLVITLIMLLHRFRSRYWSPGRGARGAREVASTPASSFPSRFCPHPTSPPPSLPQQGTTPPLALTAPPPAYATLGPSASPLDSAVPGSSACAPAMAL
T1 sequence (Q9WU38 1-638): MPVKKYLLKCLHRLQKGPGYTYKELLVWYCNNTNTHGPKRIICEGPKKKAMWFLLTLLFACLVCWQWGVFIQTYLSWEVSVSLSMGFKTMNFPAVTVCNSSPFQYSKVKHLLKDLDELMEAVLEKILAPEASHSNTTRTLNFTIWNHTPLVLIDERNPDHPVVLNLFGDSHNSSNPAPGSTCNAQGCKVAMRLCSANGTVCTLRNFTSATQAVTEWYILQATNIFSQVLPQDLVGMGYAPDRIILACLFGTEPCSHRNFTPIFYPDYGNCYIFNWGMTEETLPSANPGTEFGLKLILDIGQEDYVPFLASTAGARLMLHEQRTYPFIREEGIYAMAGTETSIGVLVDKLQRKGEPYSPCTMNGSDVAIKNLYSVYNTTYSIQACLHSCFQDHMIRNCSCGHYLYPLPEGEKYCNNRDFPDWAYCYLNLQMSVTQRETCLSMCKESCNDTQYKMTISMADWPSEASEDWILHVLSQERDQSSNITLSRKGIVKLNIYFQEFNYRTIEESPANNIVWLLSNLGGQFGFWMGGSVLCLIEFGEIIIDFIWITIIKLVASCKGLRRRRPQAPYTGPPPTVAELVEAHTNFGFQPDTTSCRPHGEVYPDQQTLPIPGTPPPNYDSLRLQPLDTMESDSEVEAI
T1 sequence (Q9WU39 1-655): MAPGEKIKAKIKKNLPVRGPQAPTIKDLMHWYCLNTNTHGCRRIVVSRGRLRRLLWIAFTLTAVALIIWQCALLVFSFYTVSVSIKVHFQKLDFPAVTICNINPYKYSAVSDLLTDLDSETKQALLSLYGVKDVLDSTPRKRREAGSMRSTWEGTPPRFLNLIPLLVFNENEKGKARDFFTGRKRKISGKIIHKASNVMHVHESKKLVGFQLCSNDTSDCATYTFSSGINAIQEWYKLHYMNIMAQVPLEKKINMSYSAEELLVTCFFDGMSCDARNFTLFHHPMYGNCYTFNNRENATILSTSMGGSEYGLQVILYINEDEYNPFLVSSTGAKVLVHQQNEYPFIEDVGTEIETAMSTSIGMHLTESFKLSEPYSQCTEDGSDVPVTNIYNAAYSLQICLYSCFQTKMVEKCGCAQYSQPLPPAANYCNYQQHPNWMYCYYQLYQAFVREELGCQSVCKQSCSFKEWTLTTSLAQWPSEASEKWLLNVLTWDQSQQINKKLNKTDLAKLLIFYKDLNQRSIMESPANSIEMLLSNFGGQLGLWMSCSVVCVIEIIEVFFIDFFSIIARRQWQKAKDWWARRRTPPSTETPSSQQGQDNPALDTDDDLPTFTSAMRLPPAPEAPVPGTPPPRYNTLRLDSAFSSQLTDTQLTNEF
Experimental: The IC50 values of the example compounds given above were determined in the Ussing Chamber assay. Ussing Chamber: Mouse kidney M-1 cells were cultivated in DMEM containing 5% FCS and 5 μM dexamethasone for 10 to 12 days on polyester transwell filters. Filters were inserted into a teflon-coated well-plate which fit into the ussing chamber system. Prior to measurement the medium of M-1 cells was replaced with Caco-2 transport buffer (Invitrogen, Germany). During measurements, the Ussing chamber temperature was kept at 37° C. Short circuit currents (I_sc) were measured in the voltage-clamp mode with the software package Lab View for data acquisition and analysis. The transepithelial electrical resistance (TEER) was determined by the application of voltage steps of ±5 mV every 5 sec. Compounds were administered at a final concentration of 3 μM or at increasing concentrations (1-3-10 μM) to the apical solution. At the end of each experiment the amiloride sensitive I_SC was measured by adding 3 μM amiloride to the apical compartment. Results are expressed as inhibition in percent of the amiloride effect or as IC50.

[2] = Permeability in CALU-3 cells; type: in vitro ADME; details: human, CALU-3 monolayers, pH 7.4, 37° C., 10 μM compound; for Papp A→B at 90 min, 10 μM: apical-to-basal; for Papp B→A at 90 min, 10 μM: basal-to-apical
Experimental: Permeability measurements across polarized, confluent CALU-3 cell monolayers grown on permeable filter supports are used to provide information on the potential of a compound to pass the lung epithelium. Apparent permeability coefficients (Papp) of the compounds across the CALU-3 cell monolayers are measured (pH 7.4, 37° C.) in apical-to-basal (AB) and basal-to-apical (BA) transport direction. […] CALU-3 cells (1-2×10^5 cells/1 cm^2 area) are seeded on filter inserts (Costar transwell polycarbonate filters, 0.4 μm pore size) and cultured (for 10-12 days DMEM) until tight monolayers are formed. Compounds of interest are dissolved in appropriate solvent (DMSO, 10 mM stock solution). Stock solutions are diluted with HTP-4 buffer (128.13 mM NaCl, 5.36 mM KCl, 1 mM MgSO4, 1.8 mM CaCl2, 4.17 mM NaHCO3, 1.19 mM Na2HPO4×7H2O, 0.41 mM NaH2PO4×H2O, 15 mM HEPES, 20 mM glucose, 0.25% BSA, pH 7.4) to prepare the transport solutions (10 μM compound, final DMSO<=0.5%). The transport solution (TL) is applied to the apical or basolateral donor side for measuring A-B or B-A permeability (3 filter replicates), respectively. The receiver side contains the same buffer as the donor side. After 30 min of accommodation, samples are collected at the start t0=0 min and at the end of the experiment tn=90 min from the donor and at 0, 30, 60, and 90 min also from the receiver chamber. Volume removed is replenished by HTP-4 buffer. The compound concentration in the samples is measured by HPLC-MS/MS or scintillation counting. The permeability coefficient (Papp) and efflux ratio are calculated according to: Papp [cm/s]=(concentration receiver [nM]*volume receiver [mL]/time interval [sec])*(1/filter area)*(1/donor concentration [nM]).

SMILES	IC50 [1] [nM]	Papp A→B at 90 min, 10 μM [2] [×10⁻⁶ cm/s]	Papp B→A at 90 min, 10 μM [2] [×10⁻⁶ cm/s]
CCn1c(CNC(=O)c2nc(Cl)cnc2N)[n+](CC)c2ccc(OCC(=O)N(Cc3nc(C)ccc3O)C[C@H](C)O)cc21.O=C([O-])C(F)(F)F [Example 2.05]	3	0.4	0.1
CCn1c(CNC(=O)c2nc(Cl)cnc2N)[n+](CC)c2ccc(OCC(=O)N3CCC(N)CC3)cc21 [Example 2.03]	1		
CCn1c(CNC(=O)c2nc(Cl)cnc2N)[n+](CC)c2ccc(OCC(=O)NCCOCP(C)(C)=O)cc21.O=C([O-])C(F)(F)F [Example 2.04]	3	< 0.7	0.4
CC[n+]1c(CNC(=O)c2nc(Cl)cnc2N)n(C[C@@H]2CCCO2)c2cc(OCC(=O)N3CC[S+]([O-])CC3)ccc21.O=C([O-])C(F)(F)F [Example 1.01]	10	0.8	0.3
CCn1c(CNC(=O)c2nc(Cl)cnc2N)[n+](CC)c2ccc(OCC(=O)NCCN(C)C)cc21.O=C[O-] [Example 2.06]	1	< 1	0.2
CCn1c(CNC(=O)c2nc(Cl)cnc2N)[n+](CC)c2ccc(OCC(=O)NCCNC)cc21 [Example 2.02]	2		
CCn1c(CNC(=O)c2nc(Cl)cnc2N)[n+](CC2CCOCC2)c2ccc(OCC(=O)N(Cc3nc(C)ccc3[O-])C[C@H](C)O)cc21.O=C(O)C(F)(F)F.O=C(O)C(F)(F)F [Example 1.03]	8	0.4	0.1
CCn1c(CNC(=O)c2nc(Cl)cnc2N)[n+](CC)c2ccc(OCC(=O)NCCCN)cc21.O=C(O)C(F)(F)F.O=C([O-])C(F)(F)F [Example 2.01]		0.2	0.5
CC[n+]1c(CNC(=O)c2nc(Cl)cnc2N)n(CCO)c2cc(OCC(=O)NCc3ccc(P(C)(C)=O)cc3)ccc21.O=C([O-])C(F)(F)F [Example 1.02]	10	0.6	0.3
